Laboratory results taken from patent US20040044000A1, “Isoquinoline derivatives as matrix metalloproteinase inhibitors” (priority 2002, published 2004).

Legend:
Type in all cases: biochemical
[1] = biological target: MMP-14 catalytic domain (MMP-14CD) (Homo sapiens, UniProt P50281); experiment: Inhibition of MMP-14 catalytic domain (thiopeptolide substrate hydrolysis)
From the text: (§1) The assays measure the amount by which a test compound reduces the hydrolysis of a thiopeptolide substrate catalyzed by a matrix metalloproteinase enzyme. Such assays are described in detail by Ye et al., in Biochemistry, 1992;31(45):11231-11235, which is incorporated herein by reference. One such assay is described below in Biological Method 1.
(§2) Thiopeptolide substrates show virtually no decomposition or hydrolysis at or below neutral pH in the absence of a matrix metalloproteinase enzyme. A typical thiopeptolide substrate commonly utilized for assays is Ac-Pro-Leu-Gly-thioester-Leu-Leu-Gly-OEt. A 100 μL assay mixture will contain 50 mM of N-2-hydroxyethylpiperazine-N′-2-ethanesulfonic acid buffer (“HEPES,” pH 7.0), 10 mM CaCl2, 100 μM thiopeptolide substrate, and 1 mM 5,5′-dithio-bis-(2-nitro-benzoic acid) (DTNB). The thiopeptolide substrate concentration may be varied, for example from 10 to 800 μM to obtain Km and Kcat values. The change in absorbance at 405 nm is monitored on a Thermo Max microplate reader (molecular Devices, Menlo Park, Calif.) at room temperature (22° C.). The calculation of the amount of hydrolysis of the thiopeptolide substrate is based on E412=13600 M^−1 cm^−1 for the DTNB-derived product 3-carboxy-4-nitrothiophenoxide. Assays are carried out with and without matrix metalloproteinase inhibitor compounds, and the amount of hydrolysis is compared for a determination of inhibitory activity of the test compounds.
(§3) Test compounds were evaluated at various concentrations in order to determine their respective IC50 values, the micromolar concentration of compound required to cause a 50% inhibition of catalytic activity of the respective enzyme.
(§4) The test described above for the inhibition of MMP-13 may also be adapted and used to determine the ability of the compounds of Formula I to inhibit the matrix metalloproteases MMP-1, MMP-2, MMP-3, MMP-7, MMP-9, MMP-12 and MMP-14.

[2] = biological target: MMP-3 catalytic domain (MMP-3CD) (Homo sapiens, UniProt P08254); experiment: Inhibition of MMP-3 catalytic domain (thiopeptolide substrate hydrolysis, MES pH 6.0)
From the text: as §1, §2, §3
It should be appreciated that the assay buffer used with MMP-3CD was 50 mM N-morpholinoethane sulfonate (“MES”) at pH 6.0 rather than the HEPES buffer at pH 7.0 described above.

[3] = biological target: T1, MMP-12 catalytic domain (MMP-12CD) (Homo sapiens, UniProt P39900); experiment: Inhibition of MMP-12 catalytic domain (thiopeptolide substrate hydrolysis)
T1 construct: MMP-3 catalytic domain, MMP-12 catalytic domain, MMP-14 catalytic domain, and MMP-17 catalytic domain
From the text: as §1, §2, §3, §4

[4] = biological target: T2, MMP-17 catalytic domain (MMP-17CD) (Homo sapiens, UniProt Q9ULZ9); experiment: Inhibition of MMP-17 catalytic domain (thiopeptolide substrate hydrolysis)
T2 construct: MMP-3 catalytic domain, MMP-12 catalytic domain, MMP-14 catalytic domain, and MMP-17 catalytic domain
T2 sequence (Q9ULZ9 126-295 limits assumed): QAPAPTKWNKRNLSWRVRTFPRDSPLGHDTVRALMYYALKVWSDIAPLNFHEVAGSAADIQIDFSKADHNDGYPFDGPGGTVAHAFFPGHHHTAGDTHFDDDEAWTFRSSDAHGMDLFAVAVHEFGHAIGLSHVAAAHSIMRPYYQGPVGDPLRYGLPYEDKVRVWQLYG
From the text: as §1, §2, §3

[5] = biological target: T3, MMP-13 catalytic domain (MMP-13CD) (Homo sapiens, UniProt P45452); experiment: Inhibition of MMP-13 catalytic domain (thiopeptolide substrate hydrolysis); conditions: Biological Table 1; read-out: MMP-13CD IC50
T3 construct: use the catalytic domain of the MMP-13 enzyme, namely matrix metalloproteinase-13 catalytic domain (“MMP-13CD”), rather than the corresponding full-length enzyme
Summary of the method: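 Catalytic domain of MMP-13 (MMP-13CD) with 100 μM Ac-Pro-Leu-Gly-thioester-Leu-Leu-Gly-OEt in 50 mM HEPES pH 7.0, 10 mM CaCl2, 1 mM DTNB at 22° C. Hydrolysis followed by absorbance at 405 nm; IC50 (μM) from multiple compound concentrations.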

MMP-3 catalytic domain (MMP-3CD), sequence (P08254 100-272 limits assumed, species assumed): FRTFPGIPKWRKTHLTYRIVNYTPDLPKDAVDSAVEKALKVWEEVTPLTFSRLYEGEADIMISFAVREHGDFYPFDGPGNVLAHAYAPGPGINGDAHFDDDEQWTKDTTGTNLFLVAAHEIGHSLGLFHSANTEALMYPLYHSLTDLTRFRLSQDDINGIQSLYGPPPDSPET
T1 sequence (P39900 106-263 limits assumed, species assumed): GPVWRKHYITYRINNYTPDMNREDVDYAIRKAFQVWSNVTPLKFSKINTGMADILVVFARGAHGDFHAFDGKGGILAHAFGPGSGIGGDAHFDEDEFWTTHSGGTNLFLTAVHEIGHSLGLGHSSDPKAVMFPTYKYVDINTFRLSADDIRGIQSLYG

| Compound | IC50 [1] [µM] | IC50 [2] [µM] | IC50 [3] [µM] | IC50 [4] [µM] | IC50 [5] [µM] |
| --- | --- | --- | --- | --- | --- |
| COc1ccc(CNC(=O)c2ccc3ccn(Cc4ccc(F)c(F)c4)c(=O)c3c2)cc1 [Example 25] | > 100 | 60 | > 30 | > 30 | 0.33 |
| O=C(NCc1ccncc1)c1ccc2ccn(Cc3ccc(-c4nn[nH]n4)cc3)c(=O)c2c1 [Example 57, 1-oxo-2-[4-(2H-tetrazol-5-yl)benzyl]-1,2-dihydroisoquinoline-7-carboxylic Acid (pyridin-4-ylmethyl)amide] | > 100 | > 100 | > 30 | > 100 | 0.04 |
| COc1cc(CNC(=O)c2ccc3ccn(Cc4ccc(F)c(F)c4)c(=O)c3c2)ccn1 [Example 23, 2-(3,4-difluorobenzyl)-1-oxo-1,2-dihydroisoquinoline-7-carboxylic acid (2-methoxypyridin-4-ylmethyl)amide] | > 100 | > 100 | > 100 | > 10 | 0.29 |
| COc1cc(CNC(=O)c2ccc3ccn(Cc4ccc(S(C)(=O)=O)cc4)c(=O)c3c2)ccn1 [Example 51, 2-(4-methane-sulfonylbenzyl)-1-oxo-1,2-dihydro-isoquinoline-7-carboxylic Acid (2-methoxypyridin-4-ylmethyl)amide] | > 100 | > 100 | > 30 | > 100 | 0.68 |
